The record followed here is ChEMBL document CHEMBL1201862, “PubChem BioAssay data set” (2004).

Assay [1] in a line: HEK-293T viability loss, compound-treated – cell-based, uHTS hits, cytotoxicity control for B/T-cell NF-kB inhibitor project, dose response (AID 489019).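 Note: IC50 reflects cytotoxicity as loss of cell viability.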 Type of assay: functional.
Assay [2] can be described thus: NIH3T3 cell viability loss – ATP luminescence, mouse fibroblasts, counter-screen, dose response (AID 2010).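 Note: cells exposed to compound for about 90 hours before reading.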 Type of assay: functional, cell-based. (In general: The purpose of a counterscreen is to sort out artefacts and off-target activity.)
The test system of assay [3] is Jurkat. Briefly: blockers of NF-kB activation in T cells – Jurkat, luciferase reporter, luminescence, B- and T-cell, dose response (AID 489004).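 Note: NF-kB luciferase reporter Jurkat cells stimulated with PMA plus ionomycin.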 It is filed as functional, cell-based. The conditions noted are these: Homo sapiens. (In general: Reporter assays use an easily measured gene product as a stand-in for the process of interest.)
Assay [4] is described as follows: MIN6 cell viability loss – mouse insulinoma, cytotoxicity control, dose response (AID 2122).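 Note: confirmatory high-throughput counterscreen run to flag cytotoxic compounds.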 Type of assay: functional.
Assay [5] concerns INS1. Kind of assay: INS-1E survival protection against cytokine death – cell-based, luminescence, retest, dose response (AID 449756).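 Note: cell death triggered by IL-1 beta plus TNF-alpha plus IFN-gamma mixture; protective hits raise ATP signal compared with cytokine alone wells.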 It is filed as functional. The conditions noted are these: Rattus norvegicus.
Assay [6] concerns the target Multidrug resistance protein CDR2 (Candida albicans (strain SC5314 / ATCC MYA-2876) (Yeast), UniProt P78595). Kind of assay: blockers of Nile Red efflux by Candida CDR2 – S. cerevisiae AD1-8u, singleplex, Cherry Pick2 set, dose response (AID 623994). Type of assay: functional. The conditions noted are these: read-out: EC50_MICROM.
Assay [7] in a line: decrease of insulin promoter-GFP reporter – imaging, high-content screening, mouse beta cells (AID 1628). Type of assay: functional. The conditions noted are these: MIN6.
A short description of assay [8]: Trypanosoma cruzi growth suppression in host cells – NIH3T3 host cells, beta-gal luminescence, confirmation (AID 2044).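 Note: intracellular parasites grown in NIH/3T3 mouse fibroblasts as host cells; luminescent beta-galactosidase reporter signal from transgenic T. cruzi replicating inside host cells; inhibitors lower the luminescence signal.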 It is filed as functional, cell-based.
For assay [9], the system named is CHO-K1. Briefly: Counterscreen for antagonists of the orexin 1 receptor (OX1R; HCRTR1): Homogeneous time resolved fluorescence (HTRF)-based cell-based dose response assay to identify antagonists of the parental CHO-K1 cell line. [Related pubchem assays (depositor defined):AID434989, AID435008, AID463079, AID485270, AID492963, AID492964, AID492965, AID493232, AID504699, AID504701]. It is filed as functional. The conditions noted are these: Cricetulus griseus.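 Note: potency for inhibition of ATP-stimulated IP1 production as antagonists.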

In assay [10] the test system is H4. Briefly: Luminescence Cell-Based Dose Response HTS to Identify Activators of 5'UTR Stem-Loop Driven Prion Protein mRNA Translation in H4 Neuroglioblastoma Cells. [Related pubchem assays: 1829 (Project Summary), 1814 (Primary HTS)]. It is filed as functional. The conditions noted are these: Homo sapiens.
Assay [11] can be described thus: Luminescence Cell-Based Dose Confirmation HTS to Identify Activators of 5'UTR Stem-Loop Driven Alpha-Synuclein mRNA Translation in H4 Neuroglioblastoma Cells. [Related pubchem assays: 1829 (Project Summary), 1814 (Primary HTS)]. It is filed as functional.
The target in assay [12] is T1, Orexin/Hypocretin receptor type 1 (Homo sapiens, UniProt O43613).
T1 sequence (O43613 whole entry): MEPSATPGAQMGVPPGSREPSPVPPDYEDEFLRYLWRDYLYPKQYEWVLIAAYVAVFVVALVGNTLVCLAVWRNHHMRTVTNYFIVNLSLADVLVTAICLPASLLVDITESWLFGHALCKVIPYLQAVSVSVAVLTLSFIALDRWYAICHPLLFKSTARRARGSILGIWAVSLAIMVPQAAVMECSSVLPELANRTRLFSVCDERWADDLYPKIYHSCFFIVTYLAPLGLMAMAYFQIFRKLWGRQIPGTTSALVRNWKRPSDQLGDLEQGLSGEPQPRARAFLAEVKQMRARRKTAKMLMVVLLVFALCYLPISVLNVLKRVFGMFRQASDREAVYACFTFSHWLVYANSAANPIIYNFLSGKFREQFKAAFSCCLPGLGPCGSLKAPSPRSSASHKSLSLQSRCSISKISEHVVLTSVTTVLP
Briefly: Homogeneous Time Resolved Fluorescence (HTRF)-based cell-based high throughput dose response assay for antagonists of the orexin 1 receptor (OX1R; HCRTR1). [Related pubchem assays (depositor defined):AID434989, AID435008, AID463079, AID485270, AID492963, AID492964, AID492965, AID493232, AID504717, AID504718]. Type of assay: functional. For orientation: TR-FRET usually uses a lanthanide donor and a delayed reading to cut background.

Assay [13] deals with T2, Orexin receptor type 2 (Homo sapiens, UniProt O43614).
T2 sequence (O43614 whole entry): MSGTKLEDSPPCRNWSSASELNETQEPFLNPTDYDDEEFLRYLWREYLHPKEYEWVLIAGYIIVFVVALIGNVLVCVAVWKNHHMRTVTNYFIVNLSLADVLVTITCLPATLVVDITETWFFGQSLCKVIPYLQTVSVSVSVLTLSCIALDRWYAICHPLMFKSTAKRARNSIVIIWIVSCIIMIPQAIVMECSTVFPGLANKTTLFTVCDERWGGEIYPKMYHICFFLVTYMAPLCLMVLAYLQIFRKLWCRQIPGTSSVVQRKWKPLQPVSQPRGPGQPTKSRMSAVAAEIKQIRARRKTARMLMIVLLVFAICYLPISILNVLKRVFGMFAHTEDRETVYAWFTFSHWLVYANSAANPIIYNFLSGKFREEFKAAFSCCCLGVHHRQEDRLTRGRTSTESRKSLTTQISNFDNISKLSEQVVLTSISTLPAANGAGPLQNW
Briefly: Counterscreen assay for antagonists of the orexin 1 receptor (OX1R; HCRTR1): Fluorescence-based cell-based dose response assay for antagonists of the orexin 2 receptor (OX2R; HCRTR2), run by assay provider. It is filed as functional.

Assay [14] is described as follows: Counterscreen for antagonists of the orexin 1 receptor (OX1R; HCRTR1): Fluorescence-based cell-based high throughput dose response assay to identify antagonists of the parental CHO cell line. [Related pubchem assays (depositor defined):AID434989, AID435008, AID463079, AID485270, AID492963, AID492964, AID492965, AID493232, AID504699, AID504701]. Type of assay: functional.

A short description of assay [15]: Luminescence Cell-Based Dose Response HTS to Identify Activators of Luciferase Translation or Activity in H4 […] Cells. [Related pubchem assays: 1829 (Project Summary), 1814 (Primary HTS)]. It is filed as functional.
Assay [16] concerns the target T1, Orexin/Hypocretin receptor type 1. Kind of assay: Fluorescence-based cell-based high throughput dose response assay for antagonists of the orexin 1 receptor (OX1R; HCRTR1). [Related pubchem assays (depositor defined):AID434989, AID435008, AID463079, AID485270, AID492963, AID492964, AID492965, AID493232, AID504717, AID504718]. It is filed as functional.
The target in assay [17] is T2, Orexin receptor type 2. Briefly: Counterscreen assay for antagonists of the orexin 1 receptor (OX1R; HCRTR1): Homogeneous Time Resolved Fluorescence (HTRF)-based cell-based dose response assay for antagonists of the orexin 2 receptor (OX2R; HCRTR2), run by assay provider. It is filed as functional.
Assay [18] concerns the target Ras and Rab interactor 1/Tyrosine-protein kinase ABL1 (Homo sapiens, UniProt P00519+Q13671). It is filed as functional.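 Note: biochemical TR-FRET dose-response test measuring inhibition of binding between Rin1 and Abl proteins.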
The nature of assay [19]: bead-based luminescence quenchers, dual-tagged ARNT – biochemical, AlphaScreen, cherry-pick, artefact control for ARNT-TACC3 interaction inhibitor project, dose response (AID 651705).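 Note: AlphaScreen bead proximity signal that flags compounds interfering with the detection technology; potency reflects signal decrease which marks the compound as an assay artifact.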 Type of assay: functional.
Assay [20] has as its target Melanocortin receptor 4 (Homo sapiens, UniProt P32245). Type of assay: functional, cell-based.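 Note: Cell-based assay with luminescence read-out, confirmatory dose-response testing for agonist activity of biased ligands at MC4R; human U2OS cells with tagged receptor and beta-arrestin; potency of agonists that increase receptor coupling to beta-arrestin.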
Assay [21] concerns the target Low molecular weight phosphotyrosine protein phosphatase (Homo sapiens, UniProt P24666). It is filed as functional. The conditions noted are these: read-out: IC50_Mean.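 Note: Dose-response confirmation assay measuring inhibition of LMPTP enzyme activity by fluorescence intensity read-out.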
The nature of assay [22]: Fluorescence-based cell-based high throughput dose response assay for inhibitors of the interaction of nucleotide-binding oligomerization domain containing 2 (NOD2) and the receptor-interacting serine-threonine kinase 2 (RIPK2). It is filed as functional. The conditions noted are these: Homo sapiens.
In assay [23] the target is Beta Lactamase (Pseudomonas aeruginosa, UniProt Q932Y6). Kind of assay: BLA reporter interference, concentration series – BLA reporter cells, FRET fluorescence, artefact control for NOD2-RIPK2 interaction inhibitor project, dose response (AID 651552). Type of assay: functional, cell-based.
Beta Lactamase, sequence (Q932Y6 whole entry): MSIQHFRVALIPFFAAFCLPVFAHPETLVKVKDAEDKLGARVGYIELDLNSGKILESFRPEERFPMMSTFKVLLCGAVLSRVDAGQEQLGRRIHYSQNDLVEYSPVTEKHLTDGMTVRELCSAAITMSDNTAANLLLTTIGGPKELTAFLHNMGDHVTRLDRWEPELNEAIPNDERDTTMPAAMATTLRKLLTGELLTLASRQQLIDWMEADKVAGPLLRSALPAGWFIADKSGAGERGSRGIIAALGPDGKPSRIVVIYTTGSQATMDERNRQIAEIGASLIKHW
Assay [24] addresses Aurora kinase B (Homo sapiens, UniProt Q96GD4). It is filed as functional.
Assay [25] addresses Vascular endothelial growth factor receptor 2 (Homo sapiens, UniProt P35968). It is filed as functional.
Assay [26] concerns the target Aurora kinase A (Homo sapiens, UniProt O14965). It is filed as functional.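 Note: value from the Navigating the Kinome kinase panel profiling, panel entry STK6.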
For assay [27], the target named is Hepatocyte nuclear factor 4-alpha (Homo sapiens, UniProt P41235). Type of assay: functional, cell-based.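 Note: biochemical luminescence-based dose-response counterscreen measuring inhibition of HNF4 dimerization, run alongside a screen for blockers of ABHD5–perilipin-5 interaction; split luciferase complementation of HNF4 fusion proteins in cell lysate measuring dimerization.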
Hepatocyte nuclear factor 4-alpha, sequence (P41235 whole entry, the tested form may be a part): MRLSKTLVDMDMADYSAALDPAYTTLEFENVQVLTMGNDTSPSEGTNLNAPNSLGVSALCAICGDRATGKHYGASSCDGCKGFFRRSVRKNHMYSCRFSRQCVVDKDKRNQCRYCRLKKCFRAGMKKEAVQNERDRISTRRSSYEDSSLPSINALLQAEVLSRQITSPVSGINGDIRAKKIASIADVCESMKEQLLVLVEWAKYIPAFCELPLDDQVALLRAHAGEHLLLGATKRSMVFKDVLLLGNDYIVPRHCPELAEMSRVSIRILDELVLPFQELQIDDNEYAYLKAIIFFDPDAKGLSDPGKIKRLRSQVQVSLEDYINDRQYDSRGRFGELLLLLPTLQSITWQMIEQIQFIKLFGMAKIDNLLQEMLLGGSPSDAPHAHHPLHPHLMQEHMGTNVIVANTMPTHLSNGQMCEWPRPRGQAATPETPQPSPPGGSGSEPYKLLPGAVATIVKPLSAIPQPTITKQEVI
The target in assay [28] is T3, ATP-dependent translocase ABCB1 (Homo sapiens, UniProt P08183). Briefly: inhibition of BCRP-mediated JC-1 efflux – Ig-MXP3 cells, flow cytometry, set 2, dose response (AID 504566).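 Note: flow cytometry median green fluorescence of retained JC-1 dye; potency of efflux pump inhibition measured as rising substrate retention.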 Type of assay: functional. The conditions noted are these: read-out: EC50_MICROM_.
T3 sequence (P08183 whole entry): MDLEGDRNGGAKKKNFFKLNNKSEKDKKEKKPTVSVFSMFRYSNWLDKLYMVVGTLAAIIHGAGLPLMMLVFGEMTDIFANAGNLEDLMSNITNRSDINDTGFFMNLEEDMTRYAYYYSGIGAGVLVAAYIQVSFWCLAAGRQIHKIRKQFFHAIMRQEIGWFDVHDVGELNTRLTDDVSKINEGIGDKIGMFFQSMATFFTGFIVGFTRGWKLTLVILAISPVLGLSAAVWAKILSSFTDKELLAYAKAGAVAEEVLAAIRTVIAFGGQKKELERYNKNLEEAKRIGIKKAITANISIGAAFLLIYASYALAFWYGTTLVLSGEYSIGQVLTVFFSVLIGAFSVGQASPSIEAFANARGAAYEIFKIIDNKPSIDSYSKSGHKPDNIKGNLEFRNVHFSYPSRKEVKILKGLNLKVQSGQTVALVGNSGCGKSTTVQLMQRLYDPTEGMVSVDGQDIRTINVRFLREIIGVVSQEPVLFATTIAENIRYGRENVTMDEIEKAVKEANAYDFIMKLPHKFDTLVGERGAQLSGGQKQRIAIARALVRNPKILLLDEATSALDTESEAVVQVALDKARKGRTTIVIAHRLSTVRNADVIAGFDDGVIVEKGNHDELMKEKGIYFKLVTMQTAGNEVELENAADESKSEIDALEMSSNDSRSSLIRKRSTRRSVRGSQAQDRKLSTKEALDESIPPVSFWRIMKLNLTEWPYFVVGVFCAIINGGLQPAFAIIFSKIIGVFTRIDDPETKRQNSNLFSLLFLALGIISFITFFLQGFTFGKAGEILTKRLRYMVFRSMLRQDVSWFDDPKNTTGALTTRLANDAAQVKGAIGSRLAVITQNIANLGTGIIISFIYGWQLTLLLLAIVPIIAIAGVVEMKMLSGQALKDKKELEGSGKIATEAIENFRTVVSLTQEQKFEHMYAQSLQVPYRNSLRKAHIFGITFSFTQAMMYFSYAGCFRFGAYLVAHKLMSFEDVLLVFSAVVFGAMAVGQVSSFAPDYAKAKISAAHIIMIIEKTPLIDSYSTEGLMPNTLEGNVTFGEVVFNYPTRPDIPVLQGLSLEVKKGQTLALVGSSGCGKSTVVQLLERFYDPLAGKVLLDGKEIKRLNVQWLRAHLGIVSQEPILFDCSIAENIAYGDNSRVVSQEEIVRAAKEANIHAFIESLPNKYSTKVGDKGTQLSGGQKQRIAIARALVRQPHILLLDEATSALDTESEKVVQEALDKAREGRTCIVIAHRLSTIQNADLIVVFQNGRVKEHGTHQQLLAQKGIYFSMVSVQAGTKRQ
Assay [29] concerns the target T3, ATP-dependent translocase ABCB1. Briefly: P-gp JC-1 efflux blockade concentration-response – Jurkat-DNR cells, flow cytometry, set 2, dose response (AID 504569).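 Note: potency of pump inhibitors that raise cellular JC-1 green fluorescence up to the nicardipine level.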 It is filed as functional. The conditions noted are these: read-out: EC50_MICROM_.
For assay [30], the target named is T4, Interleukin-8 (Homo sapiens, UniProt P10145). Briefly: Dose Response confirmation of uHTS small molecule hits for cystic fibrosis induced NFkb Inhibitors in a PAF-induced IL8 counterscreen. The conditions noted are these: read-out: IC50_Mean. It is filed as functional.
T4 sequence (P10145 whole entry): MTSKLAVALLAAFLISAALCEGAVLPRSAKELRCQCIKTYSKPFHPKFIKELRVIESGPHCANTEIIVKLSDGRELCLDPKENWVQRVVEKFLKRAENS
In assay [31] the target is T4, Interleukin-8. Kind of assay: Dose Response confirmation of uHTS small molecule hits for cystic fibrosis induced NFkb Inhibitors in a TNFa-induced IL8 counterscreen. Type of assay: functional. The conditions noted are these: read-out: IC50_Mean.

Activity calls are given as the source filed them. Bounds are passed on as bounds.

Aurora kinase B, sequence (Q96GD4 whole entry): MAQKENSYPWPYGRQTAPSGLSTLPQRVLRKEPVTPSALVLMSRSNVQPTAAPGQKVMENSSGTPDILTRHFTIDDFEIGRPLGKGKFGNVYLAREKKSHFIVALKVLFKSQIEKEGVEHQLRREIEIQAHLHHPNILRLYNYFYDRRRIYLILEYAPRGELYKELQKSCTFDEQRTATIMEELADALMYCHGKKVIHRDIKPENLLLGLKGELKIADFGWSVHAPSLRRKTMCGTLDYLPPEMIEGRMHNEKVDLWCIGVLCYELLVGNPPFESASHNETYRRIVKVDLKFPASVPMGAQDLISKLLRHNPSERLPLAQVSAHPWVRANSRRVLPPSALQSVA
Vascular endothelial growth factor receptor 2, sequence (P35968 whole entry): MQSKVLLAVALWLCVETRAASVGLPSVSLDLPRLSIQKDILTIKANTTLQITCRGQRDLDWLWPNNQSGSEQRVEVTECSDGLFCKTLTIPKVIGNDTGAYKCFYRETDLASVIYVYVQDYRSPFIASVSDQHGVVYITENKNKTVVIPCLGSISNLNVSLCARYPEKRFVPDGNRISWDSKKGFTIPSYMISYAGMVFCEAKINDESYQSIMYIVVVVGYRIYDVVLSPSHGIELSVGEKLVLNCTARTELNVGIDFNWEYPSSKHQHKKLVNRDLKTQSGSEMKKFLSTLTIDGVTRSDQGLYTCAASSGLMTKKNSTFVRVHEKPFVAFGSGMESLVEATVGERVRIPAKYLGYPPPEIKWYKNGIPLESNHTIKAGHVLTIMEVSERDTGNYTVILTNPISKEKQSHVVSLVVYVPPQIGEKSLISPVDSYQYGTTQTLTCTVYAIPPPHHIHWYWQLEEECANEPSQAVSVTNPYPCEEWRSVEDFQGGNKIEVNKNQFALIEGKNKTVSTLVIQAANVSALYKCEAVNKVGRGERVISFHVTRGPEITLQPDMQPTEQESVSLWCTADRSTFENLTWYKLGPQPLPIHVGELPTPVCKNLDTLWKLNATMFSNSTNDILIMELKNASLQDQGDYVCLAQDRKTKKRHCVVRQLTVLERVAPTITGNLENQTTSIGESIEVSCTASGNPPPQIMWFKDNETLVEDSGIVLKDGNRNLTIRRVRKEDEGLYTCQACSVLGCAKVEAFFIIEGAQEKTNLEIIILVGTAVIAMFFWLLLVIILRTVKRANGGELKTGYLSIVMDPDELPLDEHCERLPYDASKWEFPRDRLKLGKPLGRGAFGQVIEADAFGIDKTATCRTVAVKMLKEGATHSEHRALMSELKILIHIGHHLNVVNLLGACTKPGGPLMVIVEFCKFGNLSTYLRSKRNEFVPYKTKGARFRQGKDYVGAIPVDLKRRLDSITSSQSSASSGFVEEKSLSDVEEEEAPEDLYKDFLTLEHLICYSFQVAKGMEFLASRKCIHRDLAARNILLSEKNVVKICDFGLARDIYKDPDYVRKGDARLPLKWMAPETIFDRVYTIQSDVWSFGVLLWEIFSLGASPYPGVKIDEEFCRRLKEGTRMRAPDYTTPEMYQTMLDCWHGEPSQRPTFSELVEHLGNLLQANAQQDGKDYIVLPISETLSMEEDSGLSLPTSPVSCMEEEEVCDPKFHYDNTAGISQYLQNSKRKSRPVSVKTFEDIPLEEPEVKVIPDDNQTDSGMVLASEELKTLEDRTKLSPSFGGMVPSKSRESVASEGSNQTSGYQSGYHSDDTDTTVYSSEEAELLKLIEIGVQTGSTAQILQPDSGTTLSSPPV
Aurora kinase A, sequence (O14965 whole entry, the tested form may be a part): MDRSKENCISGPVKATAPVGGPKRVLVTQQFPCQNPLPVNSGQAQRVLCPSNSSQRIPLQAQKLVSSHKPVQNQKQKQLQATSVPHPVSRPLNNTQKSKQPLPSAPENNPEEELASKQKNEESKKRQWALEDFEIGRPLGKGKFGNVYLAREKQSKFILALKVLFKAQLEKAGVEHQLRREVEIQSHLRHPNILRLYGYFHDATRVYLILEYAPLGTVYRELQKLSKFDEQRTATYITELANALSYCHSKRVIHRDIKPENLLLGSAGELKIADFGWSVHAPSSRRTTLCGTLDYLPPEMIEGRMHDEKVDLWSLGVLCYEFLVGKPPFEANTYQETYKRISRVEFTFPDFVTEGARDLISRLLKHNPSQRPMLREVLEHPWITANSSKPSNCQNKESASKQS
Low molecular weight phosphotyrosine protein phosphatase, sequence (P24666 whole entry, the tested form may be a part): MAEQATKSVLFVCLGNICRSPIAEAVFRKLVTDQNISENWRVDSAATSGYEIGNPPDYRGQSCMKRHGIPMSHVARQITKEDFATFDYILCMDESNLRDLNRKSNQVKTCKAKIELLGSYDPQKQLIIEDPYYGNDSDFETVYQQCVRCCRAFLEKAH
Melanocortin receptor 4, sequence (P32245 whole entry): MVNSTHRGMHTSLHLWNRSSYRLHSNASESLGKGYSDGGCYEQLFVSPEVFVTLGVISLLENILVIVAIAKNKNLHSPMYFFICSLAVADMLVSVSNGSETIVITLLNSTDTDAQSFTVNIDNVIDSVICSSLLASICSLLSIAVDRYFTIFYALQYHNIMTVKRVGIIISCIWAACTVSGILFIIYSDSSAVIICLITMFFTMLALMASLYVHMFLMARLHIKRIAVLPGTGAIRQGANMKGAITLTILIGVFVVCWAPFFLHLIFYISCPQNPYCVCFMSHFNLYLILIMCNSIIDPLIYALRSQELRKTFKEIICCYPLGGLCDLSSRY

As a reminder, the AC50 is the concentration giving half of the maximal activity seen. Take `NC1=NC[C@H](Cc2ccc(O)cc2)N1CCCCC1CCCCC1`: the IC50 in assay [1] is 67.6 µM (inactive); in assay [3], 8.18 µM (active); in [4], 4.52 µM (active); in assay [7] it was 3.72 µM (active). The figures for the EC50 in [2], in assay [6] and in assay [8] were > 60 µM (not active), 15.9 µM (active) and 1.4 µM (active), respectively. Moreover, the AC50 in assay [5] was 2.43 µM (active).
Regarding `Cc1nc2c(-c3ccc(Cl)cc3)cnn2c2c1CCC2`, the IC50 in assay [9] is > 66.3 µM (inactive); in assay [12], 4.59 µM (active); in assay [13], > 88.8 µM (inactive); in [14], > 49.8 µM (inactive); in assay [16], 15 µM (inactive); in [17] it was > 50 µM (inactive). The values for the EC50 in assay [10], in assay [11] and in assay [15] were 24.5 µM (active), > 120 µM (not active) and 11.1 µM (active), respectively.
With `COC(=O)c1ccc(COC(=O)C2CCN(S(=O)(=O)c3ccc(C)c(C)c3)CC2)o1`, the IC50 in assay [18] is 12.4 µM (inactive).
`COCCn1c(-c2ccccc2)cnc1N`: the half-maximal activity concentration (AC50) in assay [19] is 115 µM (active).
Take `CCn1c2ccccc2c2cc(NC(=O)c3cccc(OC)c3)ccc21`: the IC50 in [9] is > 66.2 µM (inactive); in assay [12], 0.2 µM (active); in assay [13] it was 77.6 µM (inactive); in [14] it was > 49.8 µM (inactive); in assay [16], 0.965 µM (active); in assay [17], > 50 µM (inactive). The figures for the EC50 in assay [10], in assay [11] and in assay [15] were 40.1 µM (active), 34.8 µM (active) and 56.6 µM (active), respectively.
For `NC(Cc1ccc(C(F)(F)F)cc1)c1csc(NC(=O)Nc2ccccc2Cl)n1` (stereo not drawn), the EC50 in assay [20] was > 89.2 µM (inactive).
For `COC(=O)c1ccc(C(=O)OC)c(NC(=O)Cc2cccs2)c1`, the IC50 in [21] was 27.9 µM (inactive).
For the molecule `Cc1c(C(=O)Nc2ccccc2)c2ccc(C(F)(F)F)cc2n1O`, the IC50 in [22] is 14.5 µM (inactive); in [23], 19.4 µM (inactive).
A word on the Ki: it is a measure of affinity in units of concentration, obtained from inhibition or displacement. As to `Cc1ccc(-c2c(C#N)c(N)nc3cc(C)nn23)cc1`, the Ki was 0.1 µM (active) in [24], 3.98 µM (active) in assay [25] and 0.501 µM (active) in assay [26].
On to `CCCCN1CCN(c2ccc(-c3nc4c(C(N)=O)cccc4[nH]3)cn2)CC1`, for which the Ki in assay [24] was 0.0794 µM (active); in assay [25] it was > 5.01 µM (inactive); in assay [26], 1.26 µM (active).
Regarding `O=C(NC1CCCCC1)C(c1ccc(-c2ccccc2)cc1)n1c(=O)c(-c2ccco2)nc2ccccc21` (stereo not drawn), in assay [27], the IC50 is 2.74 µM (active).
With `O=C(c1ccoc1)N1CCN(c2cc(-c3ccc(F)cc3)nc3cc(-c4cccc(Cl)c4)nn23)CC1`, the EC50 was 2.75 µM (active) in assay [28] and 5.57 µM (active) in assay [29].
With `COc1cccc(-c2ccc3ncnc(NCc4cc(C)cs4)c3c2)c1`, the IC50 in [30] is 12.4 µM (inactive); in assay [31], 5.37 µM (active).
